Experimental data as given in EP4603105A1, “PHARMACEUTICAL COMPOSITION CONTAINING CYCLIC COMPOUND HAVING SELECTIVE KRAS INHIBITORY EFFECT AGAINST HRAS AND NRAS” (CHUGAI SEIYAKU KABUSHIKI KAISHA, priority 2022, dated 2024).
Where a SMILES comes first, the peptide text is derived from it. Bridges are numbered along the chain shown (N, C = ends). [ ]: non-standard residue; d: D form. The star is where a group is joined. hPhe(3,5-F2-4-CF3) = N[C@@H](CCc1cc(F)c(C(F)(F)F)c(F)c1)C(=O)O; hPhe(3-Cl-4-CF3) = N[C@@H](CCc1ccc(C(F)(F)F)c(Cl)c1)C(=O)O; NPrPhe(4-CF3) = CCCN[C@@H](Cc1ccc(C(F)(F)F)cc1)C(=O)O; NMeGly(cPent) = CN[C@H](C(=O)O)C1CCCC1; Pro(4,4-F2) = O=C(O)[C@@H]1CC(F)(F)CN1; Ac4c(3,3-F2) = NC1(C(=O)O)CC(F)(F)C1; Hyp = O=C(O)[C@@H]1C[C@@H](O)CN1; NMeD = CN[C@@H](CC(=O)O)C(=O)O; NMeL = CN[C@@H](CC(C)C)C(=O)O; Morpholide = C1CN(*)CCO1; Aze = O=C(O)[C@@H]1CCN1; Ac4c = NC1(C(=O)O)CCC1; Sar = CNCC(=O)O

Assays:
HRAS wild-type protein = HRAS wild-type protein (Homo sapiens, UniProt P01112); assay: Binding to HRAS by surface plasmon resonance (SPR), KD and KD ratio to KRAS
Method in brief: (§1)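 SPR, 30°C: Avi-biotin RAS·GDP captured via Biotin CAPture (~100–300 RU); running buffer HBS pH 7.4, 1 mM DTT, 10 mM MgCl2, 0.01% Tween 20, 10 µM GDP, 4% DMSO. Single-cycle kinetics, 100 µL/min, 75 s injections; 1:1 model → KD.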

[1] = tested on: human lung cancer strain NCI-H441; format: cell-based
Method in brief: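 Proliferation was scored by […] measured after the reagent was added to cultures kept at 37°C in 5% carbon dioxide.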

[2] = target: GDP-bound NRAS wild-type protein (Homo sapiens, UniProt P01111); assay: Binding to NRAS by surface plasmon resonance (SPR), KD and KD ratio to KRAS
Method in brief: as §1

[3] = ratio of KD for HRAS wild-type protein to KD for KRAS
[4] = ratio of KD for GDP-bound NRAS wild-type protein to KD for KRAS

HRAS wild-type protein, sequence (P01112 whole entry): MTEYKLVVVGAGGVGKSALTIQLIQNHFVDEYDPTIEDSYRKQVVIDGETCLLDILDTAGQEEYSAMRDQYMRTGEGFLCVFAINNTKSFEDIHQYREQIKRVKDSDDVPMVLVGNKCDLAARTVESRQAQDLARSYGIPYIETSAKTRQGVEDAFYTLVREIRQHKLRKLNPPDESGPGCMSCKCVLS
GDP-bound NRAS wild-type protein, sequence (P01111 whole entry): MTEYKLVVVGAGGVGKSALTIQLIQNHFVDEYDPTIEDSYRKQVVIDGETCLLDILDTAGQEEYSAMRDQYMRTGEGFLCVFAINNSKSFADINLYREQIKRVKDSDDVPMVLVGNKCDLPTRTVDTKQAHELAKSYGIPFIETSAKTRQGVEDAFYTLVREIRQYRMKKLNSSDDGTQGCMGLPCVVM

Row | Structure (SMILES) | IC50 [1] [nM] | HRAS /KRAS (HRAS wild-type protein; [3]) | NRAS /KRAS [2, 4] | HRAS /KRAS (HRAS wild-type protein; ratio of KD value for HRAS wild-type protein to KD value for KRAS (SPR)) | NRAS /KRAS ([2]; ratio of KD value for GDP-bound NRAS wild-type protein to KD value for KRAS (SPR)) | HRAS /KRAS (HRAS wild-type protein; ratio of the KD value with respect to HRAS wild-type protein to the KD value with respect to KRAS) | NRAS /KRAS ([2]; ratio of the KD value with respect to GDP-bound NRAS wild-type protein to the KD value with respect to KRAS)
1 | CCCN1C(=O)CN(C)C(=O)[C@@H]2CCN2C(=O)[C@H]([C@@H](C)CC)NC(=O)[C@H](CC(C)C)N(C)C(=O)C[C@@H](C(=O)N2CCOCC2)N(C)C(=O)[C@H](C2CCCC2)N(C)C(=O)C2(CC(F)(F)C2)NC(=O)[C@@H]2CCCN2C(=O)[C@H](CCc2cc(F)c(C(F)(F)F)c(F)c2)NC(=O)CN(C)C(=O)[C@@H]1Cc1ccc(C(F)(F)F)cc1 [PP0783] ([NMeL]I[Aze][Sar][NPrPhe(4-CF3)][Sar][hPhe(3,5-F2-4-CF3)]P[Ac4c(3,3-F2)][NMeGly(cPent)][NMeD]-Morpholide; lactam N-11) | 122 | B (a compound having 3 or more and less than 10 is denoted as B) | B (a compound having 3 or more and less than 10 is denoted as B) | – | – | – | –
2 | CCCN1C(=O)CN(C)C(=O)CNC(=O)[C@H]([C@@H](C)CC)NC(=O)[C@H](CC(C)C)N(C)C(=O)C[C@@H](C(=O)N2CCOCC2)NC(=O)[C@H](C2CCCC2)N(C)C(=O)C2(CCC2)NC(=O)[C@@H]2CC(F)(F)CN2C(=O)[C@H](CCc2ccc(C(F)(F)F)c(Cl)c2)NC(=O)CN(C)C(=O)[C@@H]1Cc1ccc(C(F)(F)F)cc1 [PP0328] ([NMeL]IG[Sar][NPrPhe(4-CF3)][Sar][hPhe(3-Cl-4-CF3)][Pro(4,4-F2)][Ac4c][NMeGly(cPent)]D-Morpholide; lactam N-11) | 243 | B (a compound having 3 or more and less than 10 is denoted as B) | B (a compound having 3 or more and less than 10 is denoted as B) | – | – | – | –
3 | CCCN1C(=O)CN(C)C(=O)CN(C)C(=O)[C@H]([C@@H](C)CC)NC(=O)[C@H](CC(C)C)N(C)C(=O)C[C@@H](C(=O)N(C)C)NC(=O)[C@H](C2CCCC2)N(C)C(=O)C2(CCC2)NC(=O)[C@@H]2C[C@@H](OCC)CN2C(=O)[C@H](CCc2ccc(C(F)(F)F)c(Cl)c2)NC(=O)CN(C)C(=O)[C@@H]1Cc1ccc(C(F)(F)F)cc1 [PP0360] ([NMeL]I[Sar][Sar][NPrPhe(4-CF3)][Sar][hPhe(3-Cl-4-CF3)][Hyp](Et)[Ac4c][NMeGly(cPent)]D-NMe2; lactam N-11) | 18 | C (A compound having a KD ratio of 0.1 or more and less than 3 is denoted as C) | B (a compound having 3 or more and less than 10 is denoted as B) | – | – | – | –
4 | CCO[C@@H]1C[C@H]2C(=O)NC3(CC(C)(C)C3)C(=O)N(C)[C@@H](C3CCCC3)C(=O)N(C)[C@H](C(=O)N(C)C)CC(=O)N(C)[C@@H](CC(C)C)C(=O)N[C@@H]([C@@H](C)CC)C(=O)N(C)CC(=O)N(C)[C@H]3C/C=C\CCN(C3=O)[C@@H](Cc3ccc(C(C)C)cc3)C(=O)N(C)CC(=O)N[C@@H](CCc3ccc(C(F)(F)F)c(OC)c3)C(=O)N2C1 [PP2692] | 7.7 | A (a compound having 10 or more and less than 20 is denoted as A) | A (a compound having 10 or more and less than 20 is denoted as A) | – | – | – | –

Second part, led by results:

Row | IC50 [1] [nM] | Structure (SMILES) | HRAS /KRAS (HRAS wild-type protein; [3]) | NRAS /KRAS [2, 4] | HRAS /KRAS (HRAS wild-type protein; ratio of KD value for HRAS wild-type protein to KD value for KRAS (SPR)) | NRAS /KRAS ([2]; ratio of KD value for GDP-bound NRAS wild-type protein to KD value for KRAS (SPR)) | HRAS /KRAS (HRAS wild-type protein; ratio of the KD value with respect to HRAS wild-type protein to the KD value with respect to KRAS) | NRAS /KRAS ([2]; ratio of the KD value with respect to GDP-bound NRAS wild-type protein to the KD value with respect to KRAS)
5 | 29.5 | CCC[C@H]1C(=O)N[C@@H]([C@@H](C)CC)C(=O)N(C)CC(=O)N(C)[C@H]2C/C=C\CCN(C2=O)[C@@H](Cc2ccc(C(F)(F)F)cc2)C(=O)N(C)CC(=O)N[C@@H](CCc2ccc(C(F)(F)F)c(OC)c2)C(=O)N2CCCCC[C@H]2C(=O)NC2(CC(C)(C)C2)C(=O)N(C)[C@@H](C(CC)CC)C(=O)N(C)[C@H](C(=O)N(C)C)CC(=O)N1C [PP2968] | A (a compound having 10 or more and less than 20 is denoted as A) | AA (a compound having 20 or more is denoted as AA) | – | – | – | –
6 | 78.2 | CCO[C@@H]1C[C@H]2C(=O)NC3(CCC3)C(=O)N(C)[C@@H](C(CC)CC)C(=O)N(C)[C@H](C(=O)N(C)C)CC(=O)N(C)[C@@H](CC(C)C)C(=O)N[C@@H]([C@@H](C)CC)C(=O)N(C)CC(=O)N(C)[C@H]3C/C=C\CCN(C3=O)[C@@H](Cc3ccc(F)cc3)C(=O)N(C)CC(=O)N[C@@H](CCc3cc(F)c(C(F)(F)F)c(F)c3)C(=O)N2C1 [PP1519] | – | – | A (a compound having 10 or more and less than 20 is denoted as A) | A (a compound having 10 or more and less than 20 is denoted as A) | – | –
7 | 1.1 | CC[C@H](C)[C@@H]1NC(=O)[C@@H]2CCCCCCc3ccc(cc3)C[C@@H](C(=O)N(C)CC(=O)N[C@@H](CCc3ccc(C(F)(F)F)c(OC)c3)C(=O)N3C[C@H](OC(C)C)C[C@H]3C(=O)NC3(CC(C)(C)C3)C(=O)N(C)[C@@H](C3CCCC3)C(=O)N(C)[C@H](C(=O)N(C)C)CC(=O)N2C)N2CC/C=C\C[C@@H](C2=O)N(C)C(=O)CN(C)C1=O [PP3067] | B (a compound having 3 or more and less than 10 is denoted as B) | A (a compound having 10 or more and less than 20 is denoted as A) | – | – | – | –
8 | 8.7 | CCCOC[C@H]1C(=O)N[C@@H]([C@@H](C)CC)C(=O)N(C)CC(=O)N(C)[C@H]2C/C=C\CCN(C2=O)[C@@H](Cc2ccc(C(F)(F)F)cc2)C(=O)N(C)CC(=O)N[C@@H](CCc2ccc(C(F)(F)F)c(OC)c2)C(=O)N2C[C@H](OCC)C[C@H]2C(=O)NC2(CC(C)(C)C2)C(=O)N(C)[C@@H](C2CCCC2)C(=O)N(C)[C@H](C(=O)N(C)CC)CC(=O)N1C [PP1973] | – | – | – | – | B (a compound having 3 or more and less than 10 is denoted as B) | A (a compound having 10 or more and less than 20 is denoted as A)
